{"source": "patent US20060241100A1", "about": "“Acylaminobicyclic heteroaromatic compounds and uses thereof” (Pfizer Inc, priority 2005, published 2006)", "system": "CB-1 receptor", "experiment": "CB-1 receptor binding ([3H]SR141716A displacement)", "settings": "rat or human CB-1 protocol not specified; kind of value (Ki/IC50) not stated", "method": "Compounds having an activity <20 nM are generally tested in the CB-1 GTPγ [^35S] Binding Assay and the CB-2 binding assay described below in the Biological Binding Assays section. Selected compounds are then tested in vivo using one or more of the functional assays described in the Biological Functional Assays section below. The compounds in the Examples above provided a range of CB-1 receptor binding activities from 0.1 to 500 nM.\nThe following assays were designed to detect compounds that inhibit the binding of [^3H] SR141716A (selective radiolabeled CB-1 ligand) and [^3H]5-(1,1-dimethylheptyl)-2-[5-hydroxy-2-(3-hydroxypropyl)-cyclohexyl]-phenol; radiolabeled CB-1/CB-2 ligand) to their respective receptors. […]\nThe test compounds were diluted in drug buffer (0.5% BSA, 10% DMSO and TME) and then 25 μl were added to a deep well polypropylene plate. […] In the morning the filters were counted on a Wallac Betaplate™ counter (available from PerkinElmer Life Sciences™, Boston, Mass.). […]\nThe test compounds were diluted in drug buffer (0.5% BSA, 10% DMSO and TME) and then 25 μl were added to a deep well polypropylene plate. […] In the morning the filters were counted on a Wallac Betaplate™ counter (available from PerkinElmer Life Sciences™, Boston, Mass.)."}
{"smiles": "CNC1CCCOc2c1nn(-c1ccccc1Cl)c2-c1ccc(Cl)cc1", "note": "(stereo not shown) [Example 1C]", "values": [{"measurement": "CB-1 receptor binding activity", "result": 47, "unit": "nM"}]}
